Results published in PMC10803265 (Nature Medicine, 2023).
Entries after “also recorded” stand apart in the source; their conditions may differ. Like-named read-outs stand apart in the source and are kept apart here.

How the values were obtained:
[1] = system: patients; details: cited from earlier work
[2] = system: non-small cell lung cancer; details: cited from earlier work
[3] = system: mice; parameters: method as in GDC-6036 Investigator's Brochure; details: gavage, attributed to chemical irritation by the higher concentration drug formulation, ref GDC-6036 Investigator's Brochure; cited from earlier work
[4] = system: KRAS G12C-positive CRC; details: single-agent divarasib at 400 mg, patients with CRC; cited from earlier work
[5] = system: patients with KRAS G12C-positive CRC
Experimental: Preliminary antitumor activity was determined by the investigator according to RECIST v1.1. […] PFS was defined as the time from first treatment to the first occurrence of disease progression or death from any cause during the study (whichever occurred first).

[6] = system: xenograft models of KRAS G12C-positive lung tumors; parameters: method as in GDC-6036 Investigator's Brochure; details: nonclinical xenograft models of KRAS G12C-positive lung tumors; ref GDC-6036 Investigator's Brochure; cited from earlier work
[7] = system: CYP3A4; parameters: method as in GDC-6036 Investigator's Brochure; details: human hepatocyte culture; ref GDC-6036 Investigator's Brochure; cited from earlier work
[8] = system: pERK, pS6, DUSP6, SPRY4 in KRAS G12C-positive cancer cell lines; parameters: method as in GDC-6036 Investigator's Brochure; details: ref GDC-6036 Investigator's Brochure; cited from earlier work
[9] = cited from earlier work
[10] = system: P-gp; parameters: method as in GDC-6036 Investigator's Brochure; details: in vitro; ref GDC-6036 Investigator's Brochure; cited from earlier work
[11] = system: BCRP; parameters: method as in GDC-6036 Investigator's Brochure; details: in vitro; ref GDC-6036 Investigator's Brochure; cited from earlier work
[12] = system: KRAS G12C; details: single-agent divarasib; patients with detectable KRAS G12C ctDNA at C1D1; cited from earlier work
[13] = Divarasib plasma pharmacokinetics, non-compartmental analysis; assay type: in vivo, human; details: divarasib 400 mg QD in combination with cetuximab (250 mg/m^2 QW), n=21; C1D8 or C2D1 AUC0-24 / C1D1 AUC0-24; mean ± s.d.
Experimental: Pharmacokinetic parameters were estimated using non-compartmental analysis of concentration–time data. Plasma samples were evaluated for divarasib using a validated liquid chromatography tandem mass spectrometry assay. […] A stable labeled internal standard was used. Pharmacokinetic non-compartmental analysis was performed with nominal time using Phoenix WinNonlin (Certara USA, version 8.3). Graphical visualization was done using R (version 4.2.0; R Foundation for Statistical Computing). Pharmacokinetic samples at steady state were collected before dose, and at 0.5, 1, 2, 3, 4 and 8 h after dose on cycle 1 day 8 (C1D8) or on cycle 2 day 1 (C2D1).

[14] = system: cynomolgus monkeys; parameters: method as in GDC-6036 Investigator's Brochure; details: ref GDC-6036 Investigator's Brochure, cited from earlier work
[15] = system: KRAS G12C; parameters: method as in earlier work; details: in vitro; cited from earlier work
[16] = AMG 510 all events, n=129, MRTX849 related only, n=17, ref Janne et al. 2019, Hong et al. 2020
[17] = Phase I trial, one patient, ref Hong et al. 2020
[18] = in combination with cetuximab, 29 patients
[19] = divarasib 400 mg QD single agent, multiple doses (C1D8 or C2D1), N 76, mean ± s.d.
[20] = single-agent divarasib at 400 mg

SMILES: C=CC(=O)N1CCN(c2nc(=O)n(-c3c(C)ccnc3C(C)C)c3nc(-c4c(O)cccc4F)c(F)cc23)[C@@H](C)C1 [sotorasib]
- all grade adverse events: diarrhea [1, 16]: 29.5%
- all grade adverse events: nausea [1, 16]: 20.9%
- all grade adverse events: vomiting [1, 16]: 17.8%
- Grade 3 treatment-related increased AST, patients ([1]; Phase I trial, 3 out of 129, ref Hong et al. 2020): 2.3%
- Grade 3 treatment-related increased ALT, patients ([1]; Phase I trial, 6 out of 129, ref Hong et al. 2020): 4.7%
- any grade increased ALT, patients ([1]; Phase I trial, 15 out of 129, ref Hong et al. 2020): 11.6%
- any grade increased AST, patients ([1]; Phase I trial, 17 out of 129, ref Hong et al. 2020): 13.2%
- Grade 4 treatment-related elevation of ALT, patients [1, 17]: 0.8%
- discontinued treatment because of Grade 3 treatment-related increase in ALT and AST levels, patients [1, 17]: 0.8%
- ORR ([2]; phase 2 trial): 37%
- ORR ([2]; phase 3 trial): 28%

SMILES: C=CC(=O)N1CCN(c2nc(OC[C@@H]3CCCN3C)nc3c(F)c(-c4nc(N)cc(C)c4C(F)(F)F)c(Cl)cc23)[C@@H](C)C1 [divarasib]
- microscopic findings [3]: laryngeal necrosis
- confirmed ORR [4]: 35.9%
- median PFS [4]: 6.9 months
- diarrhea leading to divarasib dose reduction, patients ([5]; all grade 3): 10.3%
- vomiting leading to divarasib dose reduction, patients ([5]; grade 1): 3.4%
- TRAEs leading to divarasib dose interruptions, patients [5, 18]: 24.1%
- TRAEs leading to divarasib dose modifications (interruption, reduction or withdrawal), patients [5, 18]: 34.5%
- TRAEs leading to divarasib treatment withdrawals [5, 18]: no divarasib treatment withdrawals; also recorded: No patients withdrew
- single-agent activity on tumor growth [6]: inhibits tumor growth
- CYP3A4 mRNA induction [7]: induce messenger RNA (mRNA)
- CYP3A4 protein levels induction [7]: not protein levels
- downstream MAPK pathway components (pERK, pS6) and KRAS target genes (DUSP6, SPRY4) [8]: inhibited
- AUC0-24 [9, 19]: 9130 ± 3160 ng·h/mL
- Cmax [9, 19]: 657 ± 185 ng/mL
- tmax ([9]; divarasib 400 mg QD single agent, multiple doses (C1D8 or C2D1), N 76, median (range)): 2.0 (0.5-8.0) hr
- RAUC0-24 ([9]; divarasib 400 mg QD single agent, n=63, mean ± s.d.): 1.4 ± 0.4 fold
- mean half-life ([9]; single dose of divarasib 400 mg as a single agent): 17.6 ± 2.7 h
- P-gp transporter inhibition [10]: inhibit
- BCRP transporter inhibition [11]: inhibit
- patients with KRAS G12C VAF decline to below 0.5% at C3D1 [12]: 45.7%
- confirmed ORR [2, 20]: 56.4%
- median PFS [2, 20]: 13.1 months
- RAUC0-24 [13]: 1.2 ± 0.4 fold
- clinical signs ([14]; 4-week toxicology studies in cynomolgus monkeys): gastrointestinal intolerance with retching and vomiting
- hepatic transaminases ([14]; cynomolgus monkeys): minimal to mild transaminase elevation
- potency compared to sotorasib and adagrasib [15]: 5 to 20 times
